Measured values: PubChem BioAssay AID256 (DTP/NCI, 2004)
Where “and” joins values, the source holds several entries; their conditions need not be identical. Equal entries are not always repeated. Inconclusive results and toxic doses are left out. Rule for the calls: active = survival T/C of 150% or more; inactive = T/C below 125% in these data.

Tested on: CD2F1 mice, L1210 leukemia ip, survival T/C
Assay: NCI In Vivo Anticancer Drug Screen. Data for tumor model L1210 Leukemia (intraperitoneal) in CD2F1 (CDF1) mice
Conditions: higher = longer survival
Summary of the method: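 Tumor-bearing mice (transplanted tumor) were split into treated and vehicle control groups, and the measured endpoint of each treated group was divided by that of its vehicle controls.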

[1] = endpoint: mean survival time, dose: 100.0 mg/kg/injection, schedule: Q01DX001 (ip), vehicle: saline
[2] = endpoint: mean survival time, dose: 200.0 mg/kg/injection, schedule: Q01DX001 (ip), vehicle: saline
[3] = endpoint: mean survival time, dose: 400.0 mg/kg/injection, schedule: Q01DX001 (ip), vehicle: saline
[4] = endpoint: mean survival time, dose: 50.0 mg/kg/injection, schedule: Q01DX009 (ip), vehicle: saline with Tween-80
[5] = endpoint: mean survival time, dose: 100.0 mg/kg/injection, schedule: Q01DX009 (ip), vehicle: saline with Tween-80
[6] = endpoint: mean survival time, dose: 200.0 mg/kg/injection, schedule: Q01DX009 (ip), vehicle: saline with Tween-80
[7] = endpoint: mean survival time, dose: 400.0 mg/kg/injection, schedule: Q01DX009 (ip), vehicle: saline with Tween-80
[8] = endpoint: mean survival time, dose: 100.0 mg/kg/injection, schedule: Q04DX003 (ip), vehicle: saline with Tween-80
[9] = endpoint: mean survival time, dose: 200.0 mg/kg/injection, schedule: Q04DX003 (ip), vehicle: saline with Tween-80
[10] = endpoint: mean survival time, dose: 400.0 mg/kg/injection, schedule: Q04DX003 (ip), vehicle: saline with Tween-80

Measured: T/C

O=C(c1ccccc1)c1ccc([N+](=O)[O-])cc1
inactive: endpoint: mean survival time, dose: 100.0 mg/kg/injection, schedule: Q04DX003 (ip), vehicle: saline sonified 92 % of control | endpoint: mean survival time, dose: 200.0 mg/kg/injection, schedule: Q04DX003 (ip), vehicle: saline sonified 95 % of control | endpoint: mean survival time, dose: 400.0 mg/kg/injection, schedule: Q04DX003 (ip), vehicle: saline sonified 100 % of control

CC=C(CCCC)CCCC
inactive: [1] 107 % of control | [2] 102 % of control | [3] 103 % of control

COc1ccc(SC(=O)N(C)C)cc1
inactive: endpoint: mean survival time, dose: 25.0 mg/kg/injection, schedule: Q01DX009 (ip), vehicle: saline with Tween-80 100 % of control | [4] 103 % of control | [5] 95 % of control and 98 % of control

COc1ccc(OC)c(NC(=O)NNC(=O)c2ccc(Cl)cc2Cl)c1
inactive: [5] 91 % of control | [6] 90 % of control | [7] 91 % of control

O=C1CSC(=O)N1
inactive: [8] 94 % of control | [9] 93 % of control | [10] 92 % of control

CC[C@@H](O)C[C@H]1CCC[C@@]2(C[C@@H]3OC(=O)/C=C/[C@@](C)(O)[C@@H](O)[C@H](C)[C@@H](O)[C@H](OC4CCC(N(C)C)C(C)O4)[C@@H](O)[C@](C)(O)CCCCC/C=C/[C@@H]4CC(C)(C)O[C@@]4(O)C[C@H](O2)[C@H]3C)O1 (stereo partly drawn)
inactive: endpoint: mean survival time, dose: 0.25 mg/kg/injection, schedule: Q01DX009 (ip), vehicle: saline 109 % of control

O=C1CCCc2c1[nH]c1ccccc21
inactive: [5] 94 % of control | [6] 104 % of control | [7] 102 % of control

O=C1CC2OCCC3=CN4CCC56c7ccccc7N1C5C2C3CC46 (stereo not drawn)
inactive: endpoint: mean survival time, dose: 1.25 mg/kg/injection, schedule: Q01DX001 (ip), vehicle: other 116 % of control | endpoint: mean survival time, dose: 2.5 mg/kg/injection, schedule: Q01DX001 (ip), vehicle: other 108 % of control

CN(Cc1cnc2nc(N)nc(N)c2n1)c1ccc(C(=O)NC(CCC(=O)NC(CCC(=O)NC(CCC(=O)NC(CCC(=O)O)C(=O)O)C(=O)O)C(=O)O)C(=O)O)cc1 (stereo not drawn)
inactive: endpoint: mean survival time, dose: 0.5 mg/kg/injection, schedule: Q01DX005 (ip), vehicle: sodium bicarbonate 102 % of control | endpoint: mean survival time, dose: 1.0 mg/kg/injection, schedule: Q01DX005 (ip), vehicle: sodium bicarbonate 114 % of control and 111 % of control | endpoint: mean survival time, dose: 2.0 mg/kg/injection, schedule: Q01DX005 (ip), vehicle: sodium bicarbonate 118 % of control

CCC[N+](CCC)(CCC)CCC.N#CC(C#N)=C([SH2+])[SH2+].N#CC(C#N)=C([SH2+])[SH2+].N#CC(C#N)=C([SH2+])[SH2+].[Fe+3]
inactive: endpoint: mean survival time, dose: 25.0 mg/kg/injection, schedule: Q04DX003 (ip), vehicle: acetone 103 % of control | endpoint: mean survival time, dose: 50.0 mg/kg/injection, schedule: Q04DX003 (ip), vehicle: acetone 97 % of control

CC(=O)COc1cc(C)cc(C)c1
inactive: endpoint: mean survival time, dose: 100.0 mg/kg/injection, schedule: Q01DX001 (ip), vehicle: saline with Tween-80 104 % of control | endpoint: mean survival time, dose: 200.0 mg/kg/injection, schedule: Q01DX001 (ip), vehicle: saline with Tween-80 95 % of control | endpoint: mean survival time, dose: 400.0 mg/kg/injection, schedule: Q01DX001 (ip), vehicle: saline with Tween-80 101 % of control

O=C(NO)Nc1ccc(Cl)cc1
inactive: endpoint: mean survival time, dose: 8.0 mg/kg/injection, schedule: Q03HX024 (ip), vehicle: other 95 % of control | endpoint: mean survival time, dose: 16.0 mg/kg/injection, schedule: Q03HX024 (ip), vehicle: other 92 % of control | endpoint: mean survival time, dose: 32.0 mg/kg/injection, schedule: Q03HX024 (ip), vehicle: other 95 % of control | endpoint: mean survival time, dose: 62.0 mg/kg/injection, schedule: Q03HX024 (ip), vehicle: saline with Tween-80 106 % of control | endpoint: mean survival time, dose: 64.0 mg/kg/injection, schedule: Q03HX024 (ip), vehicle: other 93 % of control | endpoint: mean survival time, dose: 93.0 mg/kg/injection, schedule: Q03HX024 (ip), vehicle: saline with Tween-80 100 % of control | [8] 97 % of control | endpoint: mean survival time, dose: 128.0 mg/kg/injection, schedule: Q03HX024 (ip), vehicle: other 96 % of control | [9] 100 % of control | [10] 95 % of control

CCCCCCCCN(C=O)CCCCCCCC
inactive: endpoint: mean survival time, dose: 25.0 mg/kg/injection, schedule: Q04DX002 (ip), vehicle: saline with Tween-80 93 % of control | endpoint: mean survival time, dose: 50.0 mg/kg/injection, schedule: Q04DX002 (ip), vehicle: saline with Tween-80 96 % of control | endpoint: mean survival time, dose: 100.0 mg/kg/injection, schedule: Q04DX002 (ip), vehicle: saline with Tween-80 104 % of control

Cc1cc(=O)c(Cl)cc(=O)[nH]1
inactive: endpoint: mean survival time, dose: 12.5 mg/kg/injection, schedule: Q01DX001 (ip), vehicle: saline with Tween-80 95 % of control | endpoint: mean survival time, dose: 25.0 mg/kg/injection, schedule: Q01DX001 (ip), vehicle: saline with Tween-80 95 % of control

CC(=O)OCC1OC(n2ncc(=O)[nH]c2=O)C(OC(C)=O)C1OC(C)=O (stereo not drawn)
inactive: endpoint: mean survival time, dose: 12.5 mg/kg/injection, schedule: Q03HX024 (ip), vehicle: saline 112 % of control | endpoint: mean survival time, dose: 25.0 mg/kg/injection, schedule: Q03HX024 (ip), vehicle: saline 116 % of control | endpoint: mean survival time, dose: 50.0 mg/kg/injection, schedule: Q03HX024 (ip), vehicle: saline 106 % of control | [1] 106 % of control | [2] 103 % of control | [3] 106 % of control | endpoint: mean survival time, dose: 400.0 mg/kg/injection, schedule: Q01DX009 (ip), vehicle: saline 108 % of control | endpoint: mean survival time, dose: 800.0 mg/kg/injection, schedule: Q01DX001 (ip), vehicle: saline 117 % of control | endpoint: mean survival time, dose: 800.0 mg/kg/injection, schedule: Q01DX009 (ip), vehicle: saline 93 % of control

CC1CCC=C2C(=O)C3OC3C(C(C)(C)O)C21C (stereo not drawn)
inactive: endpoint: mean survival time, dose: 100.0 mg/kg/injection, schedule: Q04DX003 (ip), vehicle: acetone 93 % of control | endpoint: mean survival time, dose: 200.0 mg/kg/injection, schedule: Q04DX003 (ip), vehicle: acetone 88 % of control | endpoint: mean survival time, dose: 400.0 mg/kg/injection, schedule: Q04DX003 (ip), vehicle: acetone 88 % of control

Cn1c(=O)c2[n-]cnc2n(C)c1=O.[NH2-].[NH2-].[NH2-].[NH2-].[NH2-].[Ru+6]
inactive: endpoint: mean survival time, dose: 6.25 mg/kg/injection, schedule: Q04DX003 (ip), vehicle: water 106 % of control | endpoint: mean survival time, dose: 12.5 mg/kg/injection, schedule: Q04DX003 (ip), vehicle: water 102 % of control | endpoint: mean survival time, dose: 25.0 mg/kg/injection, schedule: Q04DX003 (ip), vehicle: water 104 % of control | endpoint: mean survival time, dose: 50.0 mg/kg/injection, schedule: Q04DX003 (ip), vehicle: water 104 % of control | endpoint: mean survival time, dose: 100.0 mg/kg/injection, schedule: Q04DX003 (ip), vehicle: water 104 % of control

CC(=O)Nc1ccc(C(C)=O)cc1[N+](=O)[O-]
inactive: [5] 91 % of control | [8] 101 % of control | [6] 95 % of control | [9] 100 % of control | [7] 95 % of control | [10] 100 % of control

C1=CC2C3c4ccccc4C(C2C1)[n+]1ccccc13 (stereo not drawn)
inactive: endpoint: mean survival time, dose: 12.5 mg/kg/injection, schedule: Q04DX003 (ip), vehicle: Klucel (hydroxypropylcellulose) (HPC) 95 % of control | endpoint: mean survival time, dose: 25.0 mg/kg/injection, schedule: Q04DX003 (ip), vehicle: Klucel (hydroxypropylcellulose) (HPC) 97 % of control | endpoint: mean survival time, dose: 50.0 mg/kg/injection, schedule: Q04DX003 (ip), vehicle: Klucel (hydroxypropylcellulose) (HPC) 93 % of control

C=CC(=C)CCC=C(C)C
inactive: endpoint: mean survival time, dose: 50.0 mg/kg/injection, schedule: Q01DX009 (ip), vehicle: acetone 96 % of control | endpoint: mean survival time, dose: 100.0 mg/kg/injection, schedule: Q01DX009 (ip), vehicle: acetone 91 % of control | endpoint: mean survival time, dose: 200.0 mg/kg/injection, schedule: Q01DX009 (ip), vehicle: acetone 96 % of control

CCOC(C[N+](C)(C)C)OCC
inactive: [4] 100 % of control | [5] 94 % of control

CC12CCc3c(ccc4cc(O)ccc34)C1CCC2=O (stereo not drawn)
inactive: endpoint: mean survival time, dose: 100.0 mg/kg/injection, schedule: Q04DX003 (ip), vehicle: saline 100 % of control | endpoint: mean survival time, dose: 200.0 mg/kg/injection, schedule: Q04DX003 (ip), vehicle: saline 97 % of control | endpoint: mean survival time, dose: 400.0 mg/kg/injection, schedule: Q04DX003 (ip), vehicle: saline 97 % of control

O=c1ccn(C2CC(O)C(COC(c3ccccc3)(c3ccccc3)c3ccccc3)O2)c(=O)[nH]1 (stereo not drawn)
inactive: endpoint: median survival time, dose: 12.5 mg/kg/injection, schedule: Q01DX005 (ip), vehicle: saline with Tween-80 98 % of control and 97 % of control | endpoint: median survival time, dose: 25.0 mg/kg/injection, schedule: Q01DX005 (ip), vehicle: saline with Tween-80 99 % of control and 92 % of control | endpoint: median survival time, dose: 50.0 mg/kg/injection, schedule: Q01DX005 (ip), vehicle: saline with Tween-80 99 % of control and 96 % of control | endpoint: median survival time, dose: 100.0 mg/kg/injection, schedule: Q01DX005 (ip), vehicle: saline with Tween-80 100 % of control and 96 % of control | endpoint: median survival time, dose: 200.0 mg/kg/injection, schedule: Q01DX005 (ip), vehicle: saline with Tween-80 100 % of control and 98 % of control
